Laboratory results as given in ChEMBL document CHEMBL4406811, “Optimization and Mechanistic Characterization of Pyridopyrimidine Inhibitors of Bacterial Biotin Carboxylase” (J Med Chem, 2019).
Converted amounts (≈) assume the structure as drawn. The source made the active and inactive calls. No cut-off for these calls is given here.

Key:
MAPK14 = MAPK14 (Homo sapiens, UniProt Q16539); experiment: Inhibition of recombinant human full-length GST-tagged MAPK14 expressed in Escherichia coli at 25 uM using FRET-labeled Ser/Thr 15 peptide as substrate measured after 1 hr by Z'-lyte assay relative to control; details: probe FRET-labeled Ser/Thr 15 peptide
CDK1/cyclin B = CDK1/cyclin B (Homo sapiens, UniProt P06493); experiment: Inhibition of full-length recombinant human His-tagged CDK1/cyclin B expressed in baculovirus expression system at 25 uM using FRET-labeled Ser/Thr 18 peptide as substrate measured after 1 hr by Z'-lyte assay relative to control; details: probe FRET-labeled Ser/Thr 18 peptide
AURKA = AURKA (Homo sapiens, UniProt O14965); experiment: Inhibition of recombinant human full-length His-tagged AURKA expressed in baculovirus expression system at 25 uM using FRET-labeled Ser/Thr 01 peptide as substrate measured after 1 hr by Z'-lyte assay relative to control; details: probe FRET-labeled Ser/Thr 01 peptide
MAPK1 = MAPK1 (Homo sapiens, UniProt P28482); experiment: Inhibition of recombinant human full-length GST-tagged MAPK1 […] expressed in Escherichia coli at 25 uM using FRET-labeled Ser/Thr 03 peptide as substrate measured after 1 hr by Z'-lyte assay relative to control; details: probe FRET-labeled Ser/Thr 03 peptide
Escherichia coli [1] = experiment: Antibacterial activity against Escherichia coli DM4100 harboring deltatolC mutant measured after 18 to 20 hrs in presence of permeabilizing agent PMBN by broth microdilution method; type: functional
CSNK2A1 = CSNK2A1 (Homo sapiens, UniProt P68400); experiment: Inhibition of recombinant human full-length His-tagged CSNK2A1 expressed in baculovirus expression system at 25 uM using FRET-labeled Ser/Thr 11 peptide as substrate measured after 1 hr by Z'-lyte assay relative to control; details: probe FRET-labeled Ser/Thr 11 peptide
SGK (Sgk1) = SGK (Sgk1) (Homo sapiens, UniProt O00141); experiment: Inhibition of recombinant human GST-tagged SGK catalytic domain (60 to 431 residues) expressed in baculovirus expression system at 25 uM using FRET-labeled Ser/Thr 06 peptide as substrate measured after 1 hr by Z'-lyte assay relative to control; details: probe FRET-labeled Ser/Thr 06 peptide
Escherichia coli [2] = experiment: Induction of cytological changes in Escherichia coli ATCC 25922 assessed as formation of short chains of three to eight cells at 100 ug/ml measured after 2 hrs by FM 4-64/DAPI staining based microscopic analysis; type: functional, organism-based
INSR = INSR (Homo sapiens, UniProt P06213); experiment: Inhibition of recombinant human GST-tagged INSR cytoplasmic domain (1011 to 1382 residues) expressed in baculovirus expression system at 25 uM using FRET-labeled Tyr 01 peptide as substrate measured after 1 hr by Z'-lyte assay relative to control; details: probe FRET-labeled Tyr 01 peptide
FYN = FYN (Homo sapiens, UniProt P06241); experiment: Inhibition of full-length recombinant human C-terminal His-tagged FYN cytoplasmic domain expressed in baculovirus expression system at 25 uM using FRET-labeled tyr 02 peptide as substrate measured after 1 hr by Z'-lyte assay relative to control; details: probe FRET-labeled tyr 02 peptide
Escherichia coli [3] = experiment: Antibacterial activity against Escherichia coli DM4100 harboring deltatolC mutant measured after 18 to 20 hrs by broth microdilution method; type: functional
Biotin carboxylase = Biotin carboxylase (Pseudomonas aeruginosa (strain ATCC 15692 / DSM 22644 / CIP 104116 / JCM14847 / LMG 12228 / 1C / PRS 101 / PAO1), UniProt P37798); experiment: Inhibition of recombinant N-terminal His-tagged Pseudomonas aeruginosa PAO1 biotin carboxylase expressed in Escherichia coli Rosetta(DE3) pLysS cells using biotin as substrate by spectroscopic analysis
MET = MET (Homo sapiens, UniProt P08581); experiment: in vitro; details: probe FRET-labeled Tyr 06 peptide
Pseudomonas aeruginosa = experiment: Antibacterial activity against Pseudomonas aeruginosa PAO1 PAM1262 harboring MexAB-OprM/MexCD-OprJ/MexEF-OprN deletion mutant assessed as mutation frequency at 8 times MIC after 48 hrs by broth microdilution method; type: functional
IKBKE = IKBKE (Homo sapiens, UniProt Q14164); experiment: in vitro; details: probe FRET-labeled Ser/Thr 11 peptide
BTK = BTK (Homo sapiens, UniProt Q06187); experiment: Inhibition of full-length recombinant human His-tagged BTK cytoplasmic domain expressed in baculovirus expression system at 25 uM using FRET-labeled tyr 01 peptide as substrate measured after 1 hr by Z'-lyte assay relative to control; details: probe FRET-labeled tyr 01 peptide
IKBKB = IKBKB (Homo sapiens, UniProt O14920); experiment: in vitro; details: probe FRET-labeled Ser/Thr 05 peptide
Escherichia coli [4] = experiment: Induction of cytological changes in Escherichia coli ATCC 25922 assessed as formation of short chains of three to eight cells at 15 ug/ml measured after 2 hrs by FM 4-64/DAPI staining based microscopic analysis; type: functional, organism-based

Chain of INSR (P06213 28-758 limits assumed): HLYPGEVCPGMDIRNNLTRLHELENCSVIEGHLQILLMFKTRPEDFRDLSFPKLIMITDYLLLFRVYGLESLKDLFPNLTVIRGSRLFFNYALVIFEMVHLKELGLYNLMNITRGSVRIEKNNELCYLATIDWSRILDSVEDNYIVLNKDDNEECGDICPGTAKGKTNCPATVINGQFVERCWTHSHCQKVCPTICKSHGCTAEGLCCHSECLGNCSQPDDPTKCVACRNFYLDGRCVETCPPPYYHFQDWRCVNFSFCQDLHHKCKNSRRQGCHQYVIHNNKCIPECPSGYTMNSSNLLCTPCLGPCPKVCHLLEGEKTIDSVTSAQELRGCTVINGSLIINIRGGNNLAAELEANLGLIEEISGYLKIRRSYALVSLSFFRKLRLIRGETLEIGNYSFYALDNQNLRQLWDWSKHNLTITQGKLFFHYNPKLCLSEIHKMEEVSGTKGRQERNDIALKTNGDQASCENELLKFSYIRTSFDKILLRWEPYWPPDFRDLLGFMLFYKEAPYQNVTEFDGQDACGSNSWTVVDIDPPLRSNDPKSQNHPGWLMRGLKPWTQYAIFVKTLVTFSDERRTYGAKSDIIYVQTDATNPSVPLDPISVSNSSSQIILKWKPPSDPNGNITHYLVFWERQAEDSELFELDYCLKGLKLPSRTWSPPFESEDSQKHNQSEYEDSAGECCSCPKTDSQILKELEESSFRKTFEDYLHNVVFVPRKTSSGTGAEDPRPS
Chain of INSR (P06213 763-1382 limits assumed): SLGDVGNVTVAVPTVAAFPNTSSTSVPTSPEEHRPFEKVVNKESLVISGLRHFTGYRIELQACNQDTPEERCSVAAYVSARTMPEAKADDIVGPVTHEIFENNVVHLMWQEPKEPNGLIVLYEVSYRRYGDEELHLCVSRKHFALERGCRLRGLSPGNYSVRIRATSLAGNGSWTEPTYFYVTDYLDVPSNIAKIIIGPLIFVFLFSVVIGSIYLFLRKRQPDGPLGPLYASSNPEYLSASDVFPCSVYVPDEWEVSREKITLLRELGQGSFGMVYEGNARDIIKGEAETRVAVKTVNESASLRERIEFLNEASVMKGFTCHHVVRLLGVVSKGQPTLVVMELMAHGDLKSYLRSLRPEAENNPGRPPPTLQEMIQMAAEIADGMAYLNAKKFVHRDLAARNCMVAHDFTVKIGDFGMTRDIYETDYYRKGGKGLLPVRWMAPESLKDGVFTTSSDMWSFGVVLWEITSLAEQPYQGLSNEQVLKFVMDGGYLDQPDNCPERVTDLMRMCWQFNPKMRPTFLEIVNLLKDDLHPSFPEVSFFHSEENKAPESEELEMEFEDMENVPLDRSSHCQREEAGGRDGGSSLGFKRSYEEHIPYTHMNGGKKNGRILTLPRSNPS
Chain of CDK1/cyclin B (P06493 whole entry): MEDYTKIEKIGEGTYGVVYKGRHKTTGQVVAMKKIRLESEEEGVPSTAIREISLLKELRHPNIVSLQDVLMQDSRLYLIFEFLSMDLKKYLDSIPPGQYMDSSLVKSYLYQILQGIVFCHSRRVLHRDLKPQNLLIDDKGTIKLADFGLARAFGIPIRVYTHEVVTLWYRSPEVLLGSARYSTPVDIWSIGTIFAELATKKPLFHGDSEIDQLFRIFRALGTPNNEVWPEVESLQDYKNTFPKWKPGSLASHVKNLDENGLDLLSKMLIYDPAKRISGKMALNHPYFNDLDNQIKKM
Chain of CDK1/cyclin B (P14635 whole entry, further chain): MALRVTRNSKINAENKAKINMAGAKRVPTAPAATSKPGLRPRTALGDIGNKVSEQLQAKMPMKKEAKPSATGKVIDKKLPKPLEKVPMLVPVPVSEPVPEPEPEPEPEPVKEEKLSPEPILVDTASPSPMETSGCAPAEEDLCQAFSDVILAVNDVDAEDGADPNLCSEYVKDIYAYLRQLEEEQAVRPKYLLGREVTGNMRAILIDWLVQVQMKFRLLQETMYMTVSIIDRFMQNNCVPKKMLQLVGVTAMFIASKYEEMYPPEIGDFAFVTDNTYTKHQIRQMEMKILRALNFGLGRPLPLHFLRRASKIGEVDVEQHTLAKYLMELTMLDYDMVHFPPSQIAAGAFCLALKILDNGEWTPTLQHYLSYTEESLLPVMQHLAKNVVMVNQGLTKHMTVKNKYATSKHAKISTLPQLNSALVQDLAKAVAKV
Chain of MET (P08581 whole entry): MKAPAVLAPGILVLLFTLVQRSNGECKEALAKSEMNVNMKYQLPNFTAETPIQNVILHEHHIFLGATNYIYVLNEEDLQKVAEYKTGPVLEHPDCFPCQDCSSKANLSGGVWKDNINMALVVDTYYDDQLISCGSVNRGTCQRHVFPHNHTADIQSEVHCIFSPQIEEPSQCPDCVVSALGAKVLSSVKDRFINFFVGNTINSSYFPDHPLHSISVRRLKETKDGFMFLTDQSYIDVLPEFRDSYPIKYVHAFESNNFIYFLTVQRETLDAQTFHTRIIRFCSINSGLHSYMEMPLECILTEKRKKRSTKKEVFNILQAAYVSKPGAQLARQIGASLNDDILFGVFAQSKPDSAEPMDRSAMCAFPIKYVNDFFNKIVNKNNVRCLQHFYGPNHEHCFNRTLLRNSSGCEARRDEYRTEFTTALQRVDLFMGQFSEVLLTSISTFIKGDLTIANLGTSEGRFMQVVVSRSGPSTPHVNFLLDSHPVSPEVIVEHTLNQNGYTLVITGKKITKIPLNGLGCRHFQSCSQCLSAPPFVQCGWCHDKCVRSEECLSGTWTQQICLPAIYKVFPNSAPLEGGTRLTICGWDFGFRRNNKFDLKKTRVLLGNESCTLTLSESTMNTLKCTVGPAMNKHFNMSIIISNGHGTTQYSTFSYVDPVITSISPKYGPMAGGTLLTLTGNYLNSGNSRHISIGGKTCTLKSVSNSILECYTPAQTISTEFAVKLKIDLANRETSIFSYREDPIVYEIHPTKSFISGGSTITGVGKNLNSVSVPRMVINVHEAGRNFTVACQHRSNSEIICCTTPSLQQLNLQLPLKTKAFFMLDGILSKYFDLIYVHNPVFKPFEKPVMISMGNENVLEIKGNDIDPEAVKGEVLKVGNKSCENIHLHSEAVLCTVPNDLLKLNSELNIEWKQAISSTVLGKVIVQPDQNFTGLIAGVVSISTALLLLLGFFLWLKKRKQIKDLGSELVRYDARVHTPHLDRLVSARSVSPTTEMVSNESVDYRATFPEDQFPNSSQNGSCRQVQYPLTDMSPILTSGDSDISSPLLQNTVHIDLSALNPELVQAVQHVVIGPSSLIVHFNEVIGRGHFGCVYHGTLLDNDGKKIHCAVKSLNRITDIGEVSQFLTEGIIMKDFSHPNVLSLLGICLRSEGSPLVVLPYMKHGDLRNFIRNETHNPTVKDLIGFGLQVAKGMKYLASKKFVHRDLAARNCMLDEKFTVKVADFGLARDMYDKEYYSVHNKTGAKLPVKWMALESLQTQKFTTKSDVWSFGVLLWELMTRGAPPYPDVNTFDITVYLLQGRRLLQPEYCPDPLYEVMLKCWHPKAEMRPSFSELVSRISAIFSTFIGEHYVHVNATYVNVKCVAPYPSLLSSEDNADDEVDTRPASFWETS
Chain of MAPK14 (Q16539 whole entry): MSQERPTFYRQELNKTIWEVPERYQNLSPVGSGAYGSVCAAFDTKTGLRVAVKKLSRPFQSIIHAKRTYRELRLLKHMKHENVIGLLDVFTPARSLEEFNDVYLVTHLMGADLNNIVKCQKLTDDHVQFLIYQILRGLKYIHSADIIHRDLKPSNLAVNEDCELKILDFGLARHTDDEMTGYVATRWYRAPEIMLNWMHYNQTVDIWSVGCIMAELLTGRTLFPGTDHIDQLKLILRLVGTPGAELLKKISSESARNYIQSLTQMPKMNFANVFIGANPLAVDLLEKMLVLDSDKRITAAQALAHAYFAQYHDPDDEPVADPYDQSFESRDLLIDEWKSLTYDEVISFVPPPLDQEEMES
Chain of FYN (P06241 whole entry, the tested form may be a part): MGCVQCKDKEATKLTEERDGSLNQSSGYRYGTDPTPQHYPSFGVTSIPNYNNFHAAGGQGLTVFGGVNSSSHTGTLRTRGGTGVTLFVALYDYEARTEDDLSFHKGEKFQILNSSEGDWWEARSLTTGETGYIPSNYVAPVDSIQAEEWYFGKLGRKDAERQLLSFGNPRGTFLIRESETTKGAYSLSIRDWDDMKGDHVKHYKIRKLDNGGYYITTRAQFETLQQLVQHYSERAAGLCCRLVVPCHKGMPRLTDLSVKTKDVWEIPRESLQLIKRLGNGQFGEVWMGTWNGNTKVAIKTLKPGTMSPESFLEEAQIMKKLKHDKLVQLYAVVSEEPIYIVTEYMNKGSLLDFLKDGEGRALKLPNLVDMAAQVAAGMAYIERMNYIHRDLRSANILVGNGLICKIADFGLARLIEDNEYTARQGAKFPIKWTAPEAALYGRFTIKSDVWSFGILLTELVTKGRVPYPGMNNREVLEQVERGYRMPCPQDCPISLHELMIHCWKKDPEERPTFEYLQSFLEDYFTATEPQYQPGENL
Chain of MAPK1 (P28482 whole entry): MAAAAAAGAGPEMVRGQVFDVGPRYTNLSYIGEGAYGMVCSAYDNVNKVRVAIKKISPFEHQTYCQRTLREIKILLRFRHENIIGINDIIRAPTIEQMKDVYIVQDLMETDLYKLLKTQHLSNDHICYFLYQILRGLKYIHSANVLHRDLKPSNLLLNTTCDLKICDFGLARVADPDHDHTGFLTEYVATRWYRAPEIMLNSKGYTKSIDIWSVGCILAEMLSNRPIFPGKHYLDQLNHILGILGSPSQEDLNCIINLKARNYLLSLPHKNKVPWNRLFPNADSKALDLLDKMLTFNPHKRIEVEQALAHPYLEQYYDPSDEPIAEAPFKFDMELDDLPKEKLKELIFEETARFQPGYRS

SMILES | inhibition at 1 h, 25 µM (MAPK14) [%] | inhibition at 1 h, 25 µM (CDK1/cyclin B) [%] | inhibition at 1 h, 25 µM (AURKA) [%] | inhibition at 1 h, 25 µM (MAPK1) [%] | MIC (Escherichia coli [1]) [µg/mL] | inhibition at 1 h, 25 µM (CSNK2A1) [%] | inhibition at 1 h, 25 µM (SGK (Sgk1)) [%] | Activity (Escherichia coli [2]) | inhibition at 1 h, 25 µM (INSR) [%] | inhibition at 1 h, 25 µM (FYN) [%] | MIC (Escherichia coli [3]) [µg/mL] | IC50 (Biotin carboxylase) [nM] | inhibition at 1 h, 25 µM (MET) [%] | Activity (Pseudomonas aeruginosa) [×10⁻⁹ No_unit] | inhibition at 1 h, 25 µM (IKBKE) [%] | inhibition at 1 h, 25 µM (BTK) [%] | inhibition at 1 h, 25 µM (IKBKB) [%] | Activity (Escherichia coli [4])
Nc1ncc2cc(-c3c(Br)cccc3Br)c(N)nc2n1 | 24 | 18 | 20 | 26 | 0.12 | 4 | 7 | Active | 6 |  |  |  |  |  |  |  |  | 
Nc1ncc2cc(-c3c(Cl)cccc3-c3cccnc3)c(N3C[C@@H]4[C@@H](N)[C@@H]4C3)nc2n1 |  | 4 | 9 |  | 0.008 | 0 |  |  | 3 | 12 | 0.03 (≈ 0.0698 µM) | ≤ 15 | 7 | 9 | 3 | 16 | 5 | 
CC(C)COc1cccc(Cl)c1-c1cc2cnc(N)nc2nc1N1C[C@@H]2[C@@H](N)[C@@H]2C1 | 5 |  |  | 6 | 0.015 |  |  |  | 3 | 12 | 0.03 (≈ 0.0706 µM) | ≤ 15 | 15 | 2 | 0 |  |  | Active
